{"source": "patent US20090270508A1", "about": "“GluR2 receptor modulators” (priority 2007, published 2009)", "key": {"locomotor activity": {"system": "locomotor activity", "assay": "Amphetamine-induced locomotor activity in activity chambers", "assay_type": "in vivo", "settings": "mice, 1 mg/kg and 3 mg/kg i.p.", "procedure": "FIG. 17. Effect of N,N′-(2R,2′R)-2,2′-(biphenyl-4,4′-diyl)bis(propane-2,1-diyl)dipropane-2-sulfonamide) on locomotor activity in the context of various doses of amphetamine.\nMice (male, 8 weeks of age; 129S6/SvEv from Taconic) were housed in groups of five for one week. Animals were injected (i.p.) with either vehicle (diluent:saline at a ratio of 3:50 v/v), or one of two doses of GR341 (1 mg/kg and 3 mg/kg). After 15 minutes, animals were injected (i.p.) either with saline or Amphetamine at 3 mg/kg. Mice were held individually without food or water for an additional 15 minutes and then placed in Plexiglas activity chambers (model ENV-520; Med Associates, St. Albans, Vt.) (43.2 cm long×43.2 cm wide×30.5 cm high) to assess locomotor activity. Mice were placed into the center of the open field, and activity was recorded for 30 minutes with subtotals for 5-minute increments. Testing was performed in darkness to minimize anxiety."}, "GluR2 receptor": {"molecular_target": "T1, GluR2 receptor (Rattus norvegicus, UniProt P19491)", "T1 construct": "expressed in transfected cells; host or cells: Xenopus laevis oocytes", "T1 sequence (P19491 22-883)": "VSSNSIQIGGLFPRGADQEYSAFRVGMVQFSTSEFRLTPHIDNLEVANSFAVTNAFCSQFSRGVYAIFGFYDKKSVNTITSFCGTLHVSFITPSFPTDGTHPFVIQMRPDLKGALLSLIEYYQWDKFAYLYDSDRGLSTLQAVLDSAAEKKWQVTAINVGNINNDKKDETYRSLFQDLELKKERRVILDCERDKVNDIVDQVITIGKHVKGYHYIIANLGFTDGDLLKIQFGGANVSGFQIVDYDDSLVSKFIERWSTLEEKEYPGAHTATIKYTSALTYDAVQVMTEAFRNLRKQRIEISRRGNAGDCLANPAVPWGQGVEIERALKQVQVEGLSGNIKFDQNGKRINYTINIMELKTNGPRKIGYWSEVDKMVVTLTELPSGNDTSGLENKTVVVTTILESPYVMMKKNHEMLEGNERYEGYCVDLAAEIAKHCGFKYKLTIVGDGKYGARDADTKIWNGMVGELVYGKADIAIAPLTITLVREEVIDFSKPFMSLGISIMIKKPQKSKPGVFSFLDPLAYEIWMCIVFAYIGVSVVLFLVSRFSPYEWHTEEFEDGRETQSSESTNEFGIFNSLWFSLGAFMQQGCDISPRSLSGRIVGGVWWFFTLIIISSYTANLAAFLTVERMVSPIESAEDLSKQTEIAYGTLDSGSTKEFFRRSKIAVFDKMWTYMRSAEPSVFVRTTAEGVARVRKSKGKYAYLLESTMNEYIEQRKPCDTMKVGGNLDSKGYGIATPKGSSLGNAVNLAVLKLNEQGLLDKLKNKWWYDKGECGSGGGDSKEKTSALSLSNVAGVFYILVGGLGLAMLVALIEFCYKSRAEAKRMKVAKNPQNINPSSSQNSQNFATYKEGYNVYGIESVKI", "assay": "Electrophysiologic studies in GluR2 expressing oocytes (I/Imax versus concentration)", "assay_type": "cell-based", "settings": "cells expressing the GluR2 receptor, FIG. 16A-D", "procedure": "FIG. 16A-E. Electrophysiologic studies comparing N,N′-(2R,2′R)-2,2′-(biphenyl-4,4′-diyl)bis(propane-2,1-diyl)dipropane-2-sulfonamide) with LY451646. A. Microamperes of current over various periods of time in a GluR2 expressing oocyte (Xenopus laevis oocyte with microinjected rat GluR2 receptor-encoding mRNA), exposed to various concentrations (0.001 μM, 0.01 μM, 0.1 μM and 1 μM) of N,N′-(2R,2′R)-2,2′-(biphenyl-4,4′-diyl)bis(propane-2,1-diyl)dipropane-2-sulfonamide). B. Microamperes of current over various periods of time in a GluR2 expressing oocyte exposed to various concentrations (0.001 μM, 0.01 μM, 0.1 μM, 1 μM and 10 μM) of LY451646. C. In an oocyte expressing GluR2, ratio of current/maximal current (I/Imax) versus concentration of N,N′-(2R,2′R)-2,2′-(biphenyl-4,4′-diyl)bis(propane-2,1-diyl)dipropane-2-sulfonamide). D. In an oocyte expressing GluR2, ratio of current/maximal current (I/Imax) versus concentration of LY451646. E. N,N′-(2R,2′R)-2,2′-(biphenyl-4,4′-diyl)bis(propane-2,1-diyl)dipropane-2-sulfonamide)."}, "[1]": {"system": "rat model of Parkinson's disease", "settings": "O'Neil et al., 2004; cited from earlier work"}, "AMPA": {"system": "AMPA", "settings": "rat, glucose utilization and c-fos expression, Fowler et al., 2004; cited from earlier work"}, "[2]": {"molecular_target": "GluR2 Flip splice variant (Homo sapiens, UniProt P42262)", "sequence (P42262 22-883 isoform P42262-2 limits assumed)": "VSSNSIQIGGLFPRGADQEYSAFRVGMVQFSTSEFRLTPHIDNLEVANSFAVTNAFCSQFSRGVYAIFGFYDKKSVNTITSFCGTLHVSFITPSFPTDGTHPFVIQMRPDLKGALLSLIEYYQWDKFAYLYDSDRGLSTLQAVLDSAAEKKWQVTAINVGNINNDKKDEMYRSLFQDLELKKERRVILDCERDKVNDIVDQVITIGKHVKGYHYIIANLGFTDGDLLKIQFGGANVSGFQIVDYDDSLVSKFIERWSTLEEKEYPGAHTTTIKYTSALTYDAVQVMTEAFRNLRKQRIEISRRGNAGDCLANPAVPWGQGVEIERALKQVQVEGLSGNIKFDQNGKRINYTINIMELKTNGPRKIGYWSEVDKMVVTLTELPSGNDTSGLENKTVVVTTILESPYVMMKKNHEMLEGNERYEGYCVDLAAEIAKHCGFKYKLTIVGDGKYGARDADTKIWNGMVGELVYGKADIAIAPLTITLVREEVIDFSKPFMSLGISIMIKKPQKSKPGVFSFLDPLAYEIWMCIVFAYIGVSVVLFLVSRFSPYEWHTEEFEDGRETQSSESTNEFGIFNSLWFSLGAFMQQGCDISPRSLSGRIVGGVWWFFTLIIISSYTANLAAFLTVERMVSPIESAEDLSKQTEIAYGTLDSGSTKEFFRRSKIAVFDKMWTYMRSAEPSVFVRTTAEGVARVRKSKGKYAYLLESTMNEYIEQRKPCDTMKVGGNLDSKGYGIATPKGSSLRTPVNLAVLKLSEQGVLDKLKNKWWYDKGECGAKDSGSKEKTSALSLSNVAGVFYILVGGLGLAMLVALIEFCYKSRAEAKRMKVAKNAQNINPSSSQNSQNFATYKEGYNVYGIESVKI", "settings": "by decreasing desensitization, Quirk and Nisenbaum, 2003; cited from earlier work"}, "despair": {"system": "despair", "settings": "Bai et al., 2001; cited from earlier work"}, "[3]": {"system": "hippocampal cell proliferation", "settings": "rats, Bai et al., 2003; cited from earlier work"}, "GluR2 S1S2": {"molecular_target": "GluR2 S1S2 (Rattus norvegicus, UniProt P19491, DEL528-650/N775S/S652T/V651G)", "sequence (P19491 with tags, fused parts or gaps DEL528-650/V651G/S652T/N775S)": "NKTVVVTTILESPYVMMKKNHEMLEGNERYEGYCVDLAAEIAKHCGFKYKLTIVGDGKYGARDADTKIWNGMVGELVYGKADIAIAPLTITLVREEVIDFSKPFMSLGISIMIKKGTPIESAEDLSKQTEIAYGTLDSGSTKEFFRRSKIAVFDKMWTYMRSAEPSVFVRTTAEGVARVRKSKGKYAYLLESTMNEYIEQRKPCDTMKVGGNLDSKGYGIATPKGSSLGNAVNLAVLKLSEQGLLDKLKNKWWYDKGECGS", "assay": "Dimerization of GluR2 S1S2", "settings": "FIG. 4A-B", "text": "(A) GluR2 alone; (B) GluR2S1S2 in the presence of LY451646.\n(§1) LY451646 is an […] of GluR2. […] The top tracing represents application of glutamate alone, the bottom tracing glutamate plus LY451646. […] In the absence of LY451646, the amount of dimerized GluR2 barely rises above baseline (FIG. 4A). With the addition of LY451646, dimers overtake monomers (FIG. 4B)."}, "Delta ATD GluR2": {"system": "Delta ATD GluR2", "assay": "Two electrode voltage clamp (TEVC) recording of glutamate currents in oocytes", "assay_type": "cell-based", "settings": "glutamate plus compound versus glutamate alone, FIG. 3", "text": "FIG. 3. LY451646 potentiates glutamate currents from Delta ATD GluR2 as measured by TEVC in oocytes. The top tracing represents application of glutamate alone, the bottom tracing glutamate plus LY451646.\nas §1"}, "GluR21 receptors": {"molecular_target": "GluR21 receptors (Rattus norvegicus, UniProt P19491)", "sequence (P19491 22-883 isoform P19491-2 limits assumed)": "as the sequence (P42262 22-883 isoform P42262-2 limits assumed) above, with M170T, T270A, R743G, A831P counted along it", "assay": "Whole-cell recording, potentiation of steady-state glutamate-induced currents", "assay_type": "cell-based", "settings": "whole-cell mode (−60 mV), 1 mM glutamate", "procedure": "FIG. 18. (A) Potentiation of steady-state glutamate-induced currents for GluR2; receptors and (B) % current potentiation bar graph.\nPotentiation of steady-state glutamate-induced currents for GluR21 receptors by N,N′-(2S,2′S)-2,2′-(biphenyl-4,4′-diyl)bis(2-fluoropropane-2,1-diyl)dipropane-2-sulfonamide).\nThe recordings are in whole-cell mode (−60 mV) and show inward currents elicited by 1 mM glutamate in the presence of various concentrations of N,N′-(2S,2′S)-2,2′-(biphenyl-4,4′-diyl)bis(2-fluoropropane-2,1-diyl)dipropane-2-sulfonamide)."}}, "data": [{"molecule": "CC(C)S(=O)(=O)NC[C@H](C)c1ccc(-c2ccc([C@@H](C)CNS(=O)(=O)C(C)C)cc2)cc1", "note": "[GR341]", "values": [{"measurement": "effect on amphetamine-induced locomotor activity", "setting": "locomotor activity; amphetamine 3 mg/kg i.p., 30 minutes, FIG. 17", "result": "inhibited amphetamine-induced locomotor activity"}, {"measurement": "effect of the compound alone on locomotor activity", "setting": "locomotor activity; saline instead of amphetamine", "result": "no significant effect"}, {"measurement": "EC50", "setting": "GluR2 receptor", "result": "12.7 ± 0.6", "unit": "nM"}]}, {"molecule": "CC(CNS(=O)(=O)C(C)C)c1ccc(-c2ccc(C#N)cc2)cc1", "note": "(centres unmarked) [LY404187, R,S—N-2-(4-(4-Cyanophenyl)phenyl)propyl 2-propanesulfonamide]", "values": [{"measurement": "neurotrophic effect", "setting": "[1]", "result": "exhibit a neurotrophic effect"}, {"measurement": "glutamate dependent AMPA stimulation of the brain", "setting": "AMPA", "result": "increases glutamate dependent AMPA stimulation"}, {"measurement": "receptor's response to glutamate", "setting": "[2]", "result": "potentiate the receptor's response to glutamate"}]}, {"molecule": "CC(C)S(=O)(=O)NC[C@H](C)c1ccc(-c2ccc(C#N)cc2)cc1", "note": "[LY451646]", "values": [{"measurement": "\"despair\" in the FST and TST", "setting": "despair", "result": "reduce “despair”"}, {"measurement": "hippocampal cell proliferation", "setting": "[3]", "result": "increase hippocampal cell proliferation"}, {"measurement": "dimerization of GluR2 S1S2", "setting": "GluR2 S1S2", "result": "promotes dimerization"}, {"measurement": "effect on glutamate currents", "setting": "Delta ATD GluR2", "result": "potentiate glutamate currents"}, {"measurement": "EC50", "setting": "GluR2 receptor", "result": "130 ± 16", "unit": "nM"}]}, {"molecule": "CC(C)S(=O)(=O)NC[C@@](C)(F)c1ccc(-c2ccc([C@](C)(F)CNS(=O)(=O)C(C)C)cc2)cc1", "note": "[N,N′-(2S,2′S)-2,2′-(biphenyl-4,4′-diyl)bis(2-fluoropropane-2,1-diyl)dipropane-2-sulfonamide)]", "values": [{"measurement": "saturating concentration", "setting": "GluR21 receptors", "result": 200, "unit": "nM"}, {"measurement": "effect on glutamate receptor currents", "setting": "GluR21 receptors; FIG. 18", "result": "potentiates glutamate receptor currents"}, {"measurement": "EC50", "setting": "GluR21 receptors; FIG. 18B, approximately half saturating concentration", "result": "~50", "unit": "nM"}]}]}
